According to patent US20200331904A1, “3-AMINO-[1,2,4]-TRIAZOLE DERIVATIVES AND THEIR USE FOR CONTROLLING UNDESIRED PLANT GROWTH” (Bayer CropScience Aktiengesellschaft, priority 2017, published 2020):

Key:
Assay type in all cases: in vivo
Amaranthus retroflexus = experiment: Pre-emergence herbicidal efficacy, AMARE; settings: scored visually after about 3 weeks vs untreated controls
Text: (§1) C.1 Pre-Emergence Herbicidal Action and Crop Plant Compatibility
(§2) Seeds of monocotyledonous and dicotyledonous weed plants and crop plants are placed in plastic or organic planting pots and covered with soil. The compounds of the invention, formulated in the form of wettable powders (WP) or as emulsion concentrates (EC), are then applied onto the surface of the covering soil as aqueous suspension or emulsion with addition of 0.5% additive at a water application rate of […] (converted). After the treatment, the pots are placed in a greenhouse and kept under good growth conditions for the trial plants. After about 3 weeks, the effect of the preparations is scored visually in comparison with untreated controls as percentages. For example, 100% activity=the plants have died, 0% activity=like control plants.
(§3) ABUTH: Abutilon theophrasti ALOMY: Alopecurus myosuroides AMARE: Amaranthus retroflexus AVEFA: Avena fatua CYPES: Cyperus esculentus ECHCG: Echinochloa crus-galli LOLMU: Lolium multiflorum MATIN: Matricaria inodora PHBPU: Ipomoea purpurea POLCO: Polygonum convolvulus SETVI: Setaria viridis STEME: Stellaria media VERPE: Veronica persica VTOTR: Viola tricolor

Matricaria inodora = experiment: Pre-emergence herbicidal efficacy, MATIN
Text: as §1, §2, §3

Polygonum convolvulus = experiment: Pre-emergence herbicidal efficacy, POLCO; settings: scored visually after about 3 weeks vs untreated controls
Text: as §1, §2, §3

Stellaria media = experiment: Pre-emergence herbicidal efficacy, STEME
Text: as §1, §2, §3

Viola tricolor = experiment: Pre-emergence herbicidal efficacy, VIOTR
Text: as §1, §2, §3

Veronica persica = experiment: Pre-emergence herbicidal efficacy, VERPE; settings: scored visually after about 3 weeks vs untreated controls
Text: as §1, §2, §3

Echinochloa crus-galli = experiment: Pre-emergence herbicidal efficacy, ECHCG; settings: Table B1, application rate 320 g/ha, scored visually after about 3 weeks vs untreated controls
Text: as §1, §2, §3

Setaria viridis = experiment: Pre-emergence herbicidal efficacy, SETVI; settings: Table B1, application rate 320 g/ha, scored visually after about 3 weeks vs untreated controls
Text: as §1, §2, §3

Abutilon theophrasti = experiment: Pre-emergence herbicidal efficacy, ABUTH; settings: Table B1, application rate 320 g/ha, scored visually after about 3 weeks vs untreated controls
Text: as §1, §2, §3

[1] = Table B2, application rate 320 g/ha
[2] = Table B2, application rate 320 g/ha, scored visually after about 3 weeks vs untreated controls
[3] = application rate 320 g/ha, scored visually after about 3 weeks
[4] = Table B1, application rate 320 g/ha
[5] = Table B1, application rate 320 g/ha, scored visually after about 3 weeks vs untreated controls

SMILES | Herbicidal efficacy against AMARE (Amaranthus retroflexus; [1]) [%] | Herbicidal efficacy against MATIN (Matricaria inodora; [2]) [%] | Herbicidal efficacy against POLCO (Polygonum convolvulus; [1]) [%] | Herbicidal efficacy against STEME (Stellaria media; [2]) [%] | Herbicidal efficacy against VIOTR (Viola tricolor; [2]) [%] | Herbicidal efficacy against VERPE (Veronica persica; [1]) [%] | Herbicidal efficacy against MATIN (Matricaria inodora; [3]) [%] | Herbicidal efficacy against STEME (Stellaria media; [3]) [%] | Herbicidal efficacy against VIOTR (Viola tricolor; [3]) [%] | Herbicidal efficacy against ECHCG (Echinochloa crus-galli) [%] | Herbicidal efficacy against SETVI (Setaria viridis) [%] | Herbicidal efficacy against ABUTH (Abutilon theophrasti) [%] | Herbicidal efficacy against AMARE (Amaranthus retroflexus; [4]) [%] | Herbicidal efficacy against MATIN (Matricaria inodora; [5]) [%] | Herbicidal efficacy against POLCO (Polygonum convolvulus; [4]) [%] | Herbicidal efficacy against STEME (Stellaria media; [5]) [%] | Herbicidal efficacy against VIOTR (Viola tricolor; [5]) [%] | Herbicidal efficacy against VERPE (Veronica persica; [4]) [%]
Cc1ccc2c(c1)C(Nc1nc3n(n1)CCCS3)CCC2 (racemic) [Example I-207] | 100 | 100 | 100 | 100 | 100 | 100 | – | – | – | – | – | – | – | – | – | – | – | –
Cc1ccc2c(c1)[C@H](Nc1nc3n(n1)CCN(C(=O)C1CCCCC1)C3)CCC2 [Example I-187] | 100 | 90 | 100 | 100 | 100 | 100 | – | – | – | – | – | – | – | – | – | – | – | –
Cc1ccc2c(c1)[C@H](Nc1nc3n(n1)CCN(S(=O)(=O)C1CCCC1)C3)[C@@H](C)C2 [Example I-193] | 100 | 90 | 100 | 100 | 100 | 100 | – | – | – | – | – | – | – | – | – | – | – | –
Cc1ccc2c(c1)[C@H](Nc1nc3n(n1)CCN(S(=O)(=O)C1CCCC1)C3)CCC2 [Example I-201] | 100 | 90 | 100 | 100 | 100 | 100 | – | – | – | – | – | – | – | – | – | – | – | –
Cc1ccc2c(c1)[C@H](Nc1nc3n(n1)CCN(S(=O)(=O)c1ccccc1Cl)C3)CCC2 [Example I-203] | 100 | 90 | 100 | 100 | 100 | 100 | – | – | – | – | – | – | – | – | – | – | – | –
Cc1ccc2c(c1)C(Nc1nc3n(n1)CCCS3(=O)=O)CCC2 (stereo not drawn) [Example I-239] | 100 | 100 | 100 | 100 | 100 | 100 | – | – | – | – | – | – | – | – | – | – | – | –
[O-][S+]1CCCCn2nc(NC3CCc4ccccc43)nc21 (stereo not drawn) [Example I-250] | 100 | 100 | 100 | 100 | 100 | 90 | 100 | 100 | 100 | – | – | – | – | – | – | – | – | –
O=S1(=O)CCCCn2nc(NC3CCCc4ccccc43)nc21 (stereo not drawn) [Example I-253] | 100 | 100 | 100 | 100 | 100 | 100 | 100 | 100 | 100 | – | – | – | – | – | – | – | – | –
CN1C(=O)CCn2nc(NC3CCCc4ccccc43)nc21 (stereo not drawn) [Example I-278] | 100 | 100 | 100 | 100 | 100 | 100 | 80 | 80 | 90 | – | – | – | – | – | – | – | – | –
Cc1ccc2c(c1)C(Nc1nc3n(n1)CCCN3S(C)(=O)=O)CC2 (stereo not drawn) [Example I-301] | 100 | 100 | 80 | 100 | 100 | 90 | – | – | – | – | – | – | – | – | – | – | – | –
Cc1ccc2c(c1)C(Nc1nc3n(n1)CCC(=O)N3C(C)C)CCC2 (stereo not drawn) [Example I-316] | – | 100 | 100 | 100 | 100 | 100 | 100 | 100 | 100 | – | – | – | – | – | – | – | – | –
Cc1ccc2c(c1)C(Nc1nc3n(n1)CCCN3S(C)(=O)=O)CCC2 (stereo not drawn) [Example I-329] | 100 | 100 | 100 | 100 | 100 | 100 | – | – | – | – | – | – | – | – | – | – | – | –
O=S(=O)(C1CC1)N1CCCn2nc(NC3CCCc4ccccc43)nc21 (stereo not drawn) [Example I-333] | 100 | – | 100 | 100 | 100 | 100 | – | – | – | – | – | – | – | – | – | – | – | –
Cc1ccc2c(c1)[C@H](Nc1nc3n(n1)CCCS3)CC2 [Example I-347] | – | – | – | – | – | – | – | – | – | 100 | 100 | 100 | 100 | 100 | 100 | 100 | 100 | 100
c1ccc2c(c1)CCC[C@H]2Nc1nc2n(n1)CCCS2 [Example I-349] | 100 | 100 | 100 | 100 | 100 | 100 | – | – | – | – | – | – | – | – | – | – | – | –
Cc1ccc2c(c1)C(Nc1nc3n(n1)CCC[S+]3[O-])C(C)C2 (stereo not drawn) [Example I-360] | – | – | – | – | – | – | – | – | – | 90 | 100 | 100 | 100 | 100 | 100 | 100 | 100 | 100
[O-][S+]1CCCn2nc(N[C@@H]3CCCc4ccccc43)nc21 (stereo partly drawn) [Example I-361] | 100 | 100 | 100 | 100 | 100 | 100 | – | – | – | – | – | – | – | – | – | – | – | –
CC1CCc2ccccc2C1Nc1nc2n(n1)CCC[S+]2[O-] (stereo not drawn) [Example I-362] | 100 | 100 | 100 | 100 | 100 | 100 | – | – | – | – | – | – | – | – | – | – | – | –
O=S1(=O)CCCCn2nc(N[C@@H]3CCc4ccccc43)nc21 [Example I-364, N-[(1R)-indan-1-yl]-4,4-dioxo-5,6,7,8-tetrahydro-[1,2,4]triazolo[5,1-b][1,3]thiazepin-2-amine] | 100 | 100 | 100 | 100 | 100 | 100 | – | – | – | – | – | – | – | – | – | – | – | –
CC1CCc2ccccc2C1Nc1nc2n(n1)CCCCS2(=O)=O (stereo not drawn) [Example I-368] | 100 | 100 | – | 100 | 100 | 100 | – | – | – | – | – | – | – | – | – | – | – | –
CC1CCc2ccccc2C1Nc1nc2n(n1)CCCC[S+]2[O-] (stereo not drawn) [Example I-373] | 100 | 100 | 100 | 100 | 100 | 100 | – | – | – | – | – | – | – | – | – | – | – | –
Cc1ccc2c(c1)[C@H](Nc1nc3n(n1)CCCS3(=O)=O)CCO2 [Example I-378] | 100 | 100 | 100 | 100 | 100 | 100 | – | – | – | – | – | – | – | – | – | – | – | –
